Measurements from article PMC12005787, “Synthetic Lethality of SHP2 and XIAP Suppresses Proliferation and Metastasis in KRAS‐mutant Nonsmall Cell Lung Cancer” (Advanced Science, 2025).

What was measured:
SHP2 in NCI‐H2122 cells = biological target: T1, SHP2 in NCI‐H2122 cells (Homo sapiens, UniProt Q06124); assay: Intracellular SHP2 activity (IP and DiFMUP); type: cell-based
T1 construct: endogenous in cells; host or cells: NCI-H2122
Description: To test intracellular SHP2 activity, the extract of NCI‐H2122 cells was precleared with protein A/G agarose beads and incubated with anti‐SHP2 antibody overnight at 4 °C, followed by further incubation with protein A/G agarose beads for 2 h at 4 °C. The Iimmunoprecipitates were suspended in sample buffer and detected in 96‐well black polystyrene plates using the fluorescent substrate DiFMUP under the same conditions as described above.

A549 and NCI‐H2122 cells = assay: Cell invasion assay; type: cell-based, human; conditions: embelin 1 and 2.5 µM; 24 h
Description: NCI-H2122 and A549 cells were pre-starved in serum-free medium for 24 h and resuspended in serum-free medium containing 5 mg mL-1 BSA. The cell suspension was added to Transwell chambers at a density of 5×105 mL-1, and RPMI-1640 or Ham F-12K medium containing 10% FBS was added to the bottom of the Transwell chambers.
Subsequently, drugs were added to the chambers and incubated at 37 °C for 48 h and cells were then fixed with 4% neutral formaldehyde for 40 min and stained with 0.1% crystal violet for 60 min. The chamber was washed with triple-distilled water, and images were collected using an inverted microscope. […]
Depending on the molecular weight of the proteins, different concentrations of sodium dodecyl-sulfate polyacrylamide gel electrophoresis (SDS-PAGE) separator gels were prepared for protein electrophoresis. Equal amounts of proteins were sampled and subjected to SDS-PAGE gel electrophoresis; at the end of electrophoresis, the proteins were transferred to nitrocellulose (NC) membranes. The NC membrane was blocked with 5% skim milk and covered with a specific primary antibody overnight at 4 °C, in which the primary antibody was diluted at a ratio of 1:500–1:5000. The NC membrane was […]

[1] = system: cancer cell lines that contain different RAS mutations; assay: Average sensitivity of cancer cell line panel by RAS mutation status; type: cell-based
Description: Inhibitory effects of embelin on KRAS-mutant and wild-type cells are listed in Supplementary Table S7.
For the adherent cell viability assay, cells in the logarithmic growth phase were seeded in 96-well culture plates at a density of 5×103 well-1 and incubated overnight. Diluted compounds or DMSO were added, or specific treatments were incubated at 37 °C and 5% CO2 for 24 h or 48 h. Cell viability was determined using CCK-8 or CellLightTM Cell Viability Assay Kit, according to the manufacturer's protocol. The luminescence signals of the treated samples were normalized to those of the DMSO group. […]

His‐ΔSHP2^K325A = biological target: T2, His‐ΔSHP2^K325A (Homo sapiens, UniProt Q06124, K325A); assay: Isothermal titration calorimetry; type: binding; conditions: read-out: KD value (ITC)
T2 construct: His‐ΔSHP2, encompassing the peptide from amino acids 205–593 retaining PTP activity; His; made in house; host or cells: E. coli BL21
T2 sequence (Q06124 205-593 K325A): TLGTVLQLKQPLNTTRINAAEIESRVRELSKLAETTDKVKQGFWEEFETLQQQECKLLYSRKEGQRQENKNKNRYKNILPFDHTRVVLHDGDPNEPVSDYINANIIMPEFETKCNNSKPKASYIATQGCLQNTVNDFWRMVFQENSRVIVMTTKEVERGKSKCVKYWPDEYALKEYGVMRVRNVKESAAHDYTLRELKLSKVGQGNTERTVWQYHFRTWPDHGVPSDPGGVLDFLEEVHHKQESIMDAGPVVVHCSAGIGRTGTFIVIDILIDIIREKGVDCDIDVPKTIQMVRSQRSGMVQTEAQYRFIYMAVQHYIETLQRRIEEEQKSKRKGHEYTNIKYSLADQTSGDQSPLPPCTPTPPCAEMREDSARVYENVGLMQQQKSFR
Description: The purified His‐ΔSHP2, His‐SHP2, or His‐ΔSHP2^K325A proteins were dialyzed overnight in dialysis buffer (20 mM HEPES, 0.15 M NaCl, 1 mM TCEP, 10% glycerol, pH 7.5). The protein concentration was determined using the BCA Protein Assay Kit, and the purity of the proteins was detected by Coomassie Brilliant Blue staining. ITC experiments were performed when the protein concentration was higher than 2 mg mL^−1 and the purity was greater than 90%. The instrument (Malvern Instruments, USA) was considered to be functioning optimally for compound and protein titration experiments when the DP value was < 0.05 µcal s^−1 by the water droplet experiment. After the sample cell was cleaned twice with protein dialysis buffer, a protein sample (300 µL) was loaded to the sample cell, an equal amount of ultrapure water was added to the reference cell, and the compound solution dissolved with the same dialysis buffer was put into the corresponding cell, in which the protein‐compound molar ratio was 1:10–1:20. The parameters were adjusted based on the curve‐fitting results to determine the optimal binding concentration gradient. Based on the exothermic changes in the reaction, the entropy increase and enthalpy change were analyzed using software fitting to obtain parameters such as the binding coefficient and affinity constant between the small molecules and proteins. […]

His‐ΔSHP2 = biological target: T3, His‐ΔSHP2 (Homo sapiens, UniProt Q06124); assay: Isothermal titration calorimetry; type: binding; conditions: read-out: KD value (ITC)
T3 construct: His‐ΔSHP2, encompassing the peptide from amino acids 205–593 retaining PTP activity; His; made in house; host or cells: E. coli
T3 sequence (Q06124 205-593): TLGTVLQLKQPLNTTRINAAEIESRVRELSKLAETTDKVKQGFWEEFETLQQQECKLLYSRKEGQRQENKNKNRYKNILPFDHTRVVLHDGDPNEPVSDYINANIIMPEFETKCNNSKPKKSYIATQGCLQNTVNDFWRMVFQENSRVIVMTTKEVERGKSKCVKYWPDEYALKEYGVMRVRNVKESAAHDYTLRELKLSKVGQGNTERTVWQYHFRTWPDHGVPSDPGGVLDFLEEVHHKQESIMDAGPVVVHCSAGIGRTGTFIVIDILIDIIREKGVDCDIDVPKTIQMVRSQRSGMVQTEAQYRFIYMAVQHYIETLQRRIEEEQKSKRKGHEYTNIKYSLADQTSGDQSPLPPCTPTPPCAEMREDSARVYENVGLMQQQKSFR
Description: (§1) The purified His‐ΔSHP2, His‐SHP2, or His‐ΔSHP2^K325A proteins were dialyzed overnight in dialysis buffer (20 mM HEPES, 0.15 M NaCl, 1 mM TCEP, 10% glycerol, pH 7.5). The protein concentration was determined using the BCA Protein Assay Kit, and the purity of the proteins was detected by Coomassie Brilliant Blue staining. ITC experiments were performed when the protein concentration was higher than 2 mg mL^−1 and the purity was greater than 90%. The instrument (Malvern Instruments, USA) was considered to be functioning optimally for compound and protein titration experiments when the DP value was < 0.05 µcal s^−1 by the water droplet experiment. After the sample cell was cleaned twice with protein dialysis buffer, a protein sample (300 µL) was loaded to the sample cell, an equal amount of ultrapure water was added to the reference cell, and the compound solution dissolved with the same dialysis buffer was put into the corresponding cell, in which the protein‐compound molar ratio was 1:10–1:20. The parameters were adjusted based on the curve‐fitting results to determine the optimal binding concentration gradient. Based on the exothermic changes in the reaction, the entropy increase and enthalpy change were analyzed using software fitting to obtain parameters such as the binding coefficient and affinity constant between the small molecules and proteins.

His‐SHP2 = biological target: T4, His‐SHP2 (Homo sapiens, UniProt Q06124); assay: Isothermal titration calorimetry; type: binding; conditions: read-out: KD value (ITC)
T4 construct: His; made in house; host or cells: E. coli
T4 sequence (Q06124 whole entry): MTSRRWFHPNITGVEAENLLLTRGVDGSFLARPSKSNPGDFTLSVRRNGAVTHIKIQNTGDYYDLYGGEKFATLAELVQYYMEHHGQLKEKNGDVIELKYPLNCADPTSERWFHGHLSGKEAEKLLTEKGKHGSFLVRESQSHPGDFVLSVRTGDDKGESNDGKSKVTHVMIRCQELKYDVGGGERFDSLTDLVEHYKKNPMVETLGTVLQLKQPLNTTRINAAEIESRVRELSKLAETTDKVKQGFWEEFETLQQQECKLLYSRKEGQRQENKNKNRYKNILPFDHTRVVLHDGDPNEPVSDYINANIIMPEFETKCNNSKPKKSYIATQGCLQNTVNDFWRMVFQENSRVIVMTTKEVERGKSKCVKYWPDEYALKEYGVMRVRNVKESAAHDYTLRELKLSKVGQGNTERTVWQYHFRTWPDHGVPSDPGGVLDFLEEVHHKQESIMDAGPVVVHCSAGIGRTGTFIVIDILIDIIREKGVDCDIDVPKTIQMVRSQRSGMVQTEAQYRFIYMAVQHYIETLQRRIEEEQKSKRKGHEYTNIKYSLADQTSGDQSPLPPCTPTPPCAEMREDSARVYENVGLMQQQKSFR
Description: as §1

His‐SHP2 (full‐length) = biological target: T5, His‐SHP2 (full‐length) (Homo sapiens, UniProt Q06124); assay: Full-length SHP2 activity activated by bis-phosphorylated Gab1 peptide; type: biochemical
T5 construct: His; made in house; host or cells: E. coli
T5 sequence (Q06124 whole entry): as above
Description: For detection of SHP2 allosteric regulation by the compounds, the soluble fusion His‐SHP2 protein was cloned, expressed, and purified by constructing a pET28a‐PTPN11 recombinant plasmid in E. coli. Subsequently, 148 nM His‐SHP2 protein with 14.8 µM peptide (bis‐phosphorylated peptide from Gab1, with the sequence of: H2N‐VE(pY)LDLDLD(PEG8)RVD‐(pY)VVVDQQ‐amide) was mixed thoroughly in reaction buffer and incubated for 30 min at 37 °C in the dark. The fluorescence intensity was detected by DiFMUP after addition of different drugs and incubation at 37 °C for 30 min, with SHP099 and Na3VO4 as positive controls and unactivated protein as negative controls.

T1 sequence (Q06124 whole entry): as above

| SMILES | effect on intracellular SHP2 activity (SHP2 in NCI‐H2122 cells) | effect on invasive ability (A549 and NCI‐H2122 cells) | IC50 ([1]; HRAS mutants) | IC50 ([1]; NRAS mutant strain) | IC50 ([1]; RAS wild‐type cell lines) | IC50 ([1]; cell lines with KRAS mutations) | Kd (His‐ΔSHP2^K325A) | Kd (His‐ΔSHP2) | Kd (His‐SHP2) | effect on SHP2 full‐length activity allosterically activated by bis‐phosphorylated Gab1 peptide (His‐SHP2 (full‐length)) |
| --- | --- | --- | --- | --- | --- | --- | --- | --- | --- | --- |
| CCCCCCCCCCCC1=C(O)C(=O)C=C(O)C1=O [Embelin] | significantly inhibited | significantly inhibited the invasive ability | 44 µM | 19.6 µM | 30.8 µM | 16.9 µM | 346 nM | 220 nM | 22.9 nM | no effect |
| CC1(N)CCN(c2cnc(-c3cccc(Cl)c3Cl)c(N)n2)CC1 [SHP099] |  | significantly inhibited the invasive ability |  |  |  |  |  |  |  |  |
